In general, IC50 refers to the midpoint of a concentration-inhibition curve. Lower therefore signals higher potency. As a reminder, the EC50 is the concentration at which the effect is half-maximal. A word on the melting point: it is the temperature, or range, at which the solid turns liquid.

Among the data in patent US8546608B2, “Proteasome inhibitors and methods of using the same” (Cephalon, Inc., priority 2003, dated 2013) are IC50, EC50 and melting point values, retold here.

Series [1] addresses T1, 20S Human Erythrocyte Proteasome (HEP) (Homo sapiens, UniProt P20618+P28074).
T1 construct: 20S Human Erythrocyte Proteasome (HEP), purchased from Immatics Biotechnologies Inc; purchased Immatics Biotechnologies Inc., Tübingen, Germany; host or cells: human erythrocytes (natural source)
Briefly: Chymotrypsin-like activity of 20S Human Erythrocyte Proteasome (HEP), IC50 determination. The series is classed as biochemical. As to conditions: assay of Example C, inhibition of HEP. The gist of the method: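 20S proteasome at 0.2 μg/mL (about 0.6 nM catalytic sites) in 20 mM Tris with 0.04% SDS, preincubated 15 min at 37° C with inhibitor before Suc-LLVY-AMC (100 μM final). AMC fluorescence read in the linear range; triplicates, IC50 from concentration series.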

Series [2] deals with T2, proteasome in Molt-4 cells (human leukemia) (Homo sapiens, UniProt P20618+P28074).
T2 sequence (P28074 60-263): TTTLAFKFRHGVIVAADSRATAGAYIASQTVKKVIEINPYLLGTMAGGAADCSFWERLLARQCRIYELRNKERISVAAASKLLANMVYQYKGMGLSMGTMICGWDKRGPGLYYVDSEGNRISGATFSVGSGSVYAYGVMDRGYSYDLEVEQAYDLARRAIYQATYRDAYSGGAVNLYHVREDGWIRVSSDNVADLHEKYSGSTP
T2 sequence (P20618 29-241): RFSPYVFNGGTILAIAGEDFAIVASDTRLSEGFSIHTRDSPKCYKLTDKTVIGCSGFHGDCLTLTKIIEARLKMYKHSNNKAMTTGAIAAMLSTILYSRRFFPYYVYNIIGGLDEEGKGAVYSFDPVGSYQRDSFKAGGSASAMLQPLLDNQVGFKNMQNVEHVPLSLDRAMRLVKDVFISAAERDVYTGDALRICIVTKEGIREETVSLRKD
The series is classed as cell-based. As to conditions: assay of Example E, inhibition of MOLT4; read-out: MOLT4 (EC50). The gist of the method:
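Intact Molt-4 cells (6×10^6 cells/mL) in HEPES-buffered saline were preincubated with inhibitor 15 min at 37 °C, then given cell-permeable MeOSuc-FLF-AFC at 25 μM final.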

SMILES strings stand for the structures. Bounds are passed on as bounds.

Consider `CC(C)C[C@H](NC(=O)[C@H](CNC(=O)c1ccc(-c2ccccc2)cc1)NC(=O)c1ccc(Oc2ccccc2)cc1)B(O)O` [E.5.34, Boronic acid, [(1R)-1-[[(2S)-3-(4-phenylbenzamide]-2-[(4-phenoxybenzoyl)amino]-1-oxopropyl]amino]-3-methylbutyl]], for which the melting point fell in the range of 158 to 160 °C. This compound also yielded a half-inhibitory concentration (IC50) in series [1] below 0.01 µM. The half-maximal effective concentration (EC50) in series [2] was below 0.2 µM.

Compound `CCCCc1ccc(C(=O)N[C@@H](CNC(=O)C#Cc2ccccc2)C(=O)N[C@@H](CC(C)C)B(O)O)cc1` [E.5.35] came in with a melting point of 138 to 140 °C. For the same compound, in series [1], the 50% inhibitory concentration (IC50) was below 0.01 µM. In addition, the EC50 in series [2] was below 0.2 µM.

Compound `CCCCc1ccc(C(=O)N[C@@H](CNC(=O)NS(=O)(=O)c2ccc(C)cc2)C(=O)N[C@@H](CC(C)C)B(O)O)cc1` [E.5.36] gave a melting point of 175 to 177 °C. The compound also registered a 50% inhibitory concentration (IC50) in series [1] below 0.1 µM. Further, in series [2], the EC50 was in the range of 0.2 to 2 µM.

With `CCCCc1ccc(C(=O)N[C@@H](CNC(=O)c2csc(-c3ccncc3)n2)C(=O)N[C@@H](CC(C)C)B(O)O)cc1` [E.5.37, Boronic acid, [(1R)-1-[[(2S)-3-(4-(2-(4-pyridyl)-1,3-thiazole-4-carbonylamino)]-2-[(4-butylbenzoyl)amino]-1-oxopropyl]amino]-3-methylbutyl]], the melting point was 155 to 158 °C. The same compound displayed a half-maximal inhibitory concentration (IC50) in series [1] below 0.01 µM. Moreover, the EC50 in series [2] is below 0.2 µM.
